Laboratory results from PMC9928118, “Funneling modulatory peptide design with generative models: Discovery and characterization of disruptors of calcineurin protein-protein interactions” (PLOS Computational Biology, 2023).
One block for each sequence: values may come before it.

Test system: GST-tagged Cn
Test: PEPperPRINT peptide microarray binding assay with GST-tagged Cn
In short: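 Qualitative binding: peptides printed on a PEPperPRINT microarray were incubated overnight at 4 °C with 1 mg/ml GST-tagged Cn, then detected with Alexa-Fluor 647 anti-GST antibody. Log fluorescence was baseline-corrected, averaged over duplicate spots, Z-normalized and averaged across five repeats.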

[1] = max over the spots listed under Location on chip
[2] = mean over the spots listed under Location on chip
[3] = GST-tagged Cn, max over the spots named in Location on chip
[4] = GST-tagged Cn, mean over the spots named in Location on chip
[5] = max over the chip locations listed for the peptide (two spots)
[6] = mean over the chip locations listed for the peptide (two spots)
[7] = GST-tagged Cn, max over the chip spots listed under Location on chip
[8] = GST-tagged Cn, mean over the chip spots listed under Location on chip
[9] = GST-tagged Cn, max over the spots on the chip (two locations)
[10] = GST-tagged Cn, mean over the spots on the chip (two locations)
[11] = GST-tagged Cn, max over the chip locations
[12] = GST-tagged Cn, mean over the chip locations

Sequence: APSSWPSIVVSPPELN [SeqRBM_1086]
Chip Fluorescence (max) [3]: 1.655 | Chip Fluorescence (mean) [4]: -0.3843

Sequence: TFWTNPQFTITLEEPD [SeqRBMlowT_1494]
Chip Fluorescence (max) [3]: 1.659 | Chip Fluorescence (mean) [4]: -0.5285

Sequence: TFWTNPQFRITLEEED [SeqRBMlowT_658]
Chip Fluorescence (max) [5]: 4.839 | Chip Fluorescence (mean) [6]: 1.41

Sequence: VRFTLPEKQVHSSAPS [SeqRBM_2315]
Chip Fluorescence (max) [7]: 0.7129 | Chip Fluorescence (mean) [8]: -0.8346

Sequence: DSLEGATIVITLTEGK [SeqRBM_8933]
Chip Fluorescence (max) [5]: 3.74 | Chip Fluorescence (mean) [6]: 0.5914

Sequence: STAALPKFDFSNPHIS [SeqRBM_9234]
Chip Fluorescence (max) [1]: 2.8681 | Chip Fluorescence (mean) [2]: 0.4605

Sequence: TFWTNPQIKLSLTEKD [SeqCAPN11_Camelus_ferus]
Chip Fluorescence (max) [1]: 3.072 | Chip Fluorescence (mean) [2]: 1.377

Sequence: AHVSVPVIVVSPGETI [SeqRBM_3486]
Chip Fluorescence (max) [11]: 0.2381 | Chip Fluorescence (mean) [12]: -0.4942

Sequence: TFWTNPQFNVTLSEAD [SeqRBM_9395]
Chip Fluorescence (max) [1]: 2.777 | Chip Fluorescence (mean) [2]: 0.5231

Sequence: ASALSPRIEITPSHEL [SeqNFATC1_Alligator_mississippiensis]
Chip Fluorescence (max) [1]: 3.085 | Chip Fluorescence (mean) [2]: 0.192

Sequence: RQGAGPILVLEGHWDA [SeqRBM_4400]
Chip Fluorescence (max) [1]: 3.288 | Chip Fluorescence (mean) [2]: -1.788

Sequence: TFWTNPQFRITLEDVD [SeqRBMlowT_966]
Chip Fluorescence (max) [1]: 2.9488 | Chip Fluorescence (mean) [2]: 0.108

Sequence: PALESPRIEITSYLGM [SeqNFATC1_Canis_lupus]
Chip Fluorescence (max) [3]: 1.5159 | Chip Fluorescence (mean) [4]: -0.48

Sequence: ADEAIPEIVISPPELP [SeqRBMlowT_1959]
Chip Fluorescence (max) [1]: 3.309 | Chip Fluorescence (mean) [2]: 0.2863

Sequence: TFWTNPQFRLKIPQVD [SeqRBMlowT_93]
Chip Fluorescence (max) [1]: 3.328 | Chip Fluorescence (mean) [2]: 1.497

Sequence: QGYKNPSAQFEPIGTK [SeqRBM_6874]
Chip Fluorescence (max) [11]: -0.3081 | Chip Fluorescence (mean) [12]: -1.163

Sequence: HSKFIPKLSLQSPVHH [SeqRBMlowT_1695]
Chip Fluorescence (max) [9]: 1.29 | Chip Fluorescence (mean) [10]: -0.2065

Sequence: MAGPHPKIVITGPHEE [PKIVIT-containing synthetic peptide]
Chip Fluorescence (max) [1]: 2.82 | Chip Fluorescence (mean) [2]: 1.158

Sequence: ADEAIPEITITPAELP [SeqRBMlowT_424]
Chip Fluorescence (max) [1]: 2.999 | Chip Fluorescence (mean) [2]: 0.8947

Sequence: QGIYQDLGGINNFSIS [SeqCRZ1_Pseudogymnoascus_sp]
Chip Fluorescence (max) [11]: -0.4093 | Chip Fluorescence (mean) [12]: -1.098

Sequence: HSKSIPKISIQSPVHH [SeqRBMlowT_863]
Chip Fluorescence (max) [11]: -0.2725 | Chip Fluorescence (mean) [12]: -0.8171

Sequence: TFWTNPQYRITLEDED [SeqRBMlowT_1185]
Chip Fluorescence (max) [5]: 4.604 | Chip Fluorescence (mean) [6]: 0.2377

Sequence: TFWTNPQFRIKLEDVD [SeqRBMlowT_2]
Chip Fluorescence (max) [7]: 0.5307 | Chip Fluorescence (mean) [8]: -0.7635

Sequence: RQPGTAPANLVGHKKQ [SeqRBM_2906]
Chip Fluorescence (max) [7]: 0.7504 | Chip Fluorescence (mean) [8]: -0.5221

Sequence: TFHTNPQYRVNIEDQD [SeqRBM_8967]
Chip Fluorescence (max) [3]: 1.436 | Chip Fluorescence (mean) [4]: 0.08694

Sequence: ADEANPQITITPAELP [SeqRBMlowT_1252]
Chip Fluorescence (max) [11]: -0.527 | Chip Fluorescence (mean) [12]: -1.133

Sequence: ESLWIPNATPTNFGVY [SeqRBM_4910]
Chip Fluorescence (max) [3]: 1.643 | Chip Fluorescence (mean) [4]: 0.8461

Sequence: KSKLIPKLSIQSPVHH [SeqRBMlowT_830]
Chip Fluorescence (max) [11]: -0.5565 | Chip Fluorescence (mean) [12]: -1.425

Sequence: QPPQNPVATVSTAHHQ [SeqRBM_6519]
Chip Fluorescence (max) [3]: 1.708 | Chip Fluorescence (mean) [4]: -0.008148

Sequence: GSDDCPNVIVHIPHED [SeqRBM_9050]
Chip Fluorescence (max) [5]: 5.16 | Chip Fluorescence (mean) [6]: 0.1112

Sequence: RQPGTALLELGGHKKQ [SeqRBMlowT_7758]
Chip Fluorescence (max) [9]: 1.043 | Chip Fluorescence (mean) [10]: 0.136

Sequence: KVMAVPRISRSPTQVL [SeqRBM_6937]
Chip Fluorescence (max) [3]: 1.835 | Chip Fluorescence (mean) [4]: 0.723

Sequence: NMATVPAVTMGEVART [SeqRBM_5293]
Chip Fluorescence (max) [1]: 2.99 | Chip Fluorescence (mean) [2]: -0.7897

Sequence: SSEYQESLCIENFSAN [SeqRBM_3304]
Chip Fluorescence (max) [3]: 1.766 | Chip Fluorescence (mean) [4]: 0.6423

Sequence: TFWTNPQYKITLEEPD [SeqRBMlowT_54]
Chip Fluorescence (max) [9]: 1.133 | Chip Fluorescence (mean) [10]: -0.8126

Sequence: VKLVIIQVRSASVDAN [SeqRBM_6437]
Chip Fluorescence (max) [11]: -0.5934 | Chip Fluorescence (mean) [12]: -1.618

Sequence: TFWTNPQFKITLEDPD [SeqRBMlowT_205]
Chip Fluorescence (max) [3]: 1.84 | Chip Fluorescence (mean) [4]: -0.4239

Sequence: PKMAPPCINIDFAPTN [SeqRBMlowT_319]
Chip Fluorescence (max) [9]: 1.2058 | Chip Fluorescence (mean) [10]: -0.8596

Sequence: NDHALPEITVTPAELP [SeqRBM_7856]
Chip Fluorescence (max) [5]: 4.823 | Chip Fluorescence (mean) [6]: 1.654

Sequence: HVSSSPDITITPTQHR [SeqRBMlowT_702]
Chip Fluorescence (max) [9]: 1.204 | Chip Fluorescence (mean) [10]: 0.3347

Sequence: TFWTNPQYRLKLEDPD [SeqRBMlowT_1296]
Chip Fluorescence (max) [5]: 7.375 | Chip Fluorescence (mean) [6]: 1.564

Sequence: RAYINPHMFFKFDGHK [SeqRBM_1639]
Chip Fluorescence (max) [7]: 0.9031 | Chip Fluorescence (mean) [8]: 0.1441

Continued, values first:

Chip Fluorescence (max) [1]: 2.642 | Chip Fluorescence (mean) [2]: 1.025
Sequence: GSMLVPAINIDYAPTN [SeqRBMlowT_5048]

Chip Fluorescence (max) [9]: 1.0328 | Chip Fluorescence (mean) [10]: -0.6623
Sequence: KSRALSKVVINEPLTI [SeqTRESK_Leptosomus_discolor]

Chip Fluorescence (max) [1]: 2.68 | Chip Fluorescence (mean) [2]: 0.3277
Sequence: STSSLPTFSFSPPQPT [SeqRBMlowT_3908]

Chip Fluorescence (max) [7]: 0.5794 | Chip Fluorescence (mean) [8]: -0.5687
Sequence: TFWTNPQYRLKIPQVD [SeqRBMlowT_9671]

Chip Fluorescence (max) [9]: 1.142 | Chip Fluorescence (mean) [10]: -0.04147
Sequence: TFWANPQFKIRLEEPD [SeqRBMlowT_2213]

Chip Fluorescence (max) [9]: 1.024 | Chip Fluorescence (mean) [10]: -0.06201
Sequence: TFWSNPQFKIKLEEPD [SeqRBMlowT_2229]

Chip Fluorescence (max) [3]: 1.655 | Chip Fluorescence (mean) [4]: 0.8527
Sequence: SKMAIAIYQMASCLLH [Seqshuffled_9384]

Chip Fluorescence (max) [7]: 0.7348 | Chip Fluorescence (mean) [8]: -0.3913
Sequence: QLRDIFQGRMITILTP [Seqshuffled_3466]

Chip Fluorescence (max) [11]: 0.1833 | Chip Fluorescence (mean) [12]: -1.098
Sequence: KKMSPPCISIDPAPNN [SeqRBMlowT_7656]

Chip Fluorescence (max) [5]: 4.098 | Chip Fluorescence (mean) [6]: 0.694
Sequence: TFWANPQYKIHLEEED [SeqRBMlowT_4653]

Chip Fluorescence (max) [7]: 0.5862 | Chip Fluorescence (mean) [8]: -1.046
Sequence: LNAIQEAQDKTDIRNK [Seqshuffled_9749]

Chip Fluorescence (max) [7]: 0.7156 | Chip Fluorescence (mean) [8]: -0.9321
Sequence: KFPGAEFLPQTLTPPP [Seqshuffled_9792]

Chip Fluorescence (max) [7]: 0.6524 | Chip Fluorescence (mean) [8]: -0.2838
Sequence: RNPGQALLTLEGHSAS [SeqRBMlowT_5868]

Chip Fluorescence (max) [9]: 1.178 | Chip Fluorescence (mean) [10]: 0.2864
Sequence: GSSSSPPVDLKIPQVR [SeqRBMlowT_8820]

Chip Fluorescence (max) [3]: 1.729 | Chip Fluorescence (mean) [4]: 0.4598
Sequence: RTPGTFPLTLKGHKKQ [SeqRBMlowT_6382]

Chip Fluorescence (max) [5]: 3.477 | Chip Fluorescence (mean) [6]: 1.051
Sequence: NDHNTNDWSFELGQTV [Seqshuffled_9000]

Chip Fluorescence (max) [5]: 3.784 | Chip Fluorescence (mean) [6]: 1.112
Sequence: ADEAPPRITITPYELP [SeqRBMlowT_5415]

Chip Fluorescence (max) [11]: 0.08477 | Chip Fluorescence (mean) [12]: -0.8412
Sequence: SQLAAPAINIDFAPTN [SeqRBMlowT_5061]

Chip Fluorescence (max) [11]: -0.1298 | Chip Fluorescence (mean) [12]: -1.588
Sequence: STSSLPTFSFSSPQST [SeqRBMlowT_3930]

Chip Fluorescence (max) [3]: 1.711 | Chip Fluorescence (mean) [4]: 0.4381
Sequence: GGESQPGIVVHVCEED [SeqRBMlowT_2505]

Chip Fluorescence (max) [1]: 2.6605 | Chip Fluorescence (mean) [2]: 0.5654
Sequence: TFWTNPQFKITLEELD [SeqRBMlowT_5669]

Chip Fluorescence (max) [9]: 1.326 | Chip Fluorescence (mean) [10]: -0.7748
Sequence: RSPGTFPLELSGHKKQ [SeqRBMlowT_6356]

Chip Fluorescence (max) [9]: 1.111 | Chip Fluorescence (mean) [10]: 0.4902
Sequence: SQFDQVHYGLHIATFH [Seqshuffled_4372]

Chip Fluorescence (max) [9]: 1.125 | Chip Fluorescence (mean) [10]: -0.4829
Sequence: TFWTNPQYRVKLEEPD [SeqRBMlowT_2230]

Chip Fluorescence (max) [3]: 1.609 | Chip Fluorescence (mean) [4]: 0.3772
Sequence: RNPGQALLTLRGHSKQ [SeqRBMlowT_6189]

Chip Fluorescence (max) [1]: 3.224 | Chip Fluorescence (mean) [2]: 1.049
Sequence: RNPGTFPLELEGHKKQ [SeqRBMlowT_8768]

Chip Fluorescence (max) [5]: 4.329 | Chip Fluorescence (mean) [6]: 0.4696
Sequence: KAYINPFMTFIEGGRK [SeqRBMlowT_3627]

Chip Fluorescence (max) [3]: 1.7974 | Chip Fluorescence (mean) [4]: -0.2423
Sequence: HSKFIPKLSIQSPVLH [SeqRBMlowT_6746]

Chip Fluorescence (max) [7]: 0.4089 | Chip Fluorescence (mean) [8]: -0.7319
Sequence: LKDEVPEVRLNIISNL [SeqRCN1_Ramazzottius_varieornatus]

Chip Fluorescence (max) [5]: 6.671 | Chip Fluorescence (mean) [6]: 1.748
Sequence: RMMEPQNRGFKGCTES [Seqshuffled_509]

Chip Fluorescence (max) [3]: 1.331 | Chip Fluorescence (mean) [4]: 0.1061
Sequence: SSKSLPTFSFSSPVSH [SeqRBMlowT_6060]

Chip Fluorescence (max) [3]: 1.396 | Chip Fluorescence (mean) [4]: 0.78
Sequence: PFEKNDIQQIHLEEHP [Seqshuffled_9861]

Chip Fluorescence (max) [7]: 0.9083 | Chip Fluorescence (mean) [8]: -0.5067
Sequence: TFWTNPQYRITVTDED [SeqRBMlowT_7478]

Chip Fluorescence (max) [5]: 4.191 | Chip Fluorescence (mean) [6]: 0.5898
Sequence: SFVHLPDFKVESLVRR [Seqshuffled_9544]

Chip Fluorescence (max) [5]: 16.2722 | Chip Fluorescence (mean) [6]: 1.499
Sequence: ADEANPRITITPAELP [SeqRBMlowT_3131]
